row,Compound,melting point
1,CC(C)C1(C)NC(c2ncccc2C#N)=NC1=O (configuration not stated),144 to 148 °C
2,Nc1n[nH]c2c(F)c(F)ccc12,183 °C
3,Cc1ccc2oc(-c3ccc(C=Cc4ccc(C(=O)O)cc4)cc3)cc2c1,355 to 358 °C
4,OCc1ccc2c(ccn2-c2ccnc(N[C@H]3CC[C@H](O)CC3)n2)c1,232 to 234 °C
5,CCOP(=O)(Cc1ccc(C(=O)Nc2ccccc2C(=O)O)cc1)OCC,171 to 172 °C
6,O=C(Nc1ccc(-n2nc(-c3ccccc3)c3cccnc32)cc1)C(F)(F)F,172 to 174 °C
7,CCC(=O)NC1Cc2cccc3c2N(CCC3)C1=O (configuration not stated),149 to 152 °C
8,COc1ccccc1-c1cc(Cl)cc2c1NC(CN)CO2 (configuration not stated),100 °C
9,CC(=O)OC1CCC2(C)C(=CCC3C2CCC2(C)C(OC(C)=O)CCC32)C1 (configuration not stated),163 to 165 °C
10,COc1ccc2c(C(=O)C=[N+]=[N-])nn(Cc3ccc(Cl)c(Cl)c3)c(=O)c2c1,129 to 130 °C
11,O=C1NC(=O)c2c1c(-c1c(Cl)cccc1Cl)cc1c2c2cc(O)ccc2n1CCO,254 to 257 °C
12,CC(C)(C)C1=NN(c2ccc(C(=O)O)cc2)C(c2ccccc2F)C1 (configuration not stated),225 °C
13,CCOC(=O)C(C(=O)OCC)c1cccc(C(=O)c2ccccc2)c1[N+](=O)[O-],130 to 131 °C
14,COc1cc(C)c(C)cc1OC,41 to 42 °C
15,c1cc2c3c(c1)nc(SCc1ccncc1)n3CCC2,105 to 107 °C
16,COc1ccc(C(=O)Nc2nc3ccc([N+](=O)[O-])cc3c(NCc3cccs3)c2C#N)cc1,217 to 220 °C
17,COc1ccc2c(NCCN3CCOCC3)noc2c1,85 to 86 °C
18,CNc1noc(C)c1Cl,43 to 47 °C
19,COc1c(N2CC(C)[C@@](N)(CF)C2)c(F)cc2c(=O)c(C(=O)O)cn([C@@H]3C[C@@H]3F)c12 (some centres not stated),167 to 169 °C
20,COCC(=O)Oc1cc(=O)n(-c2ccccc2)c2ncccc12,155 to 157 °C
21,CCCN(CCC)C1CCc2cc(NC(=O)C=NO)ccc2C1 (configuration not stated),110 to 112 °C
22,CCCc1c(OCCCOc2ccc3c(c2)CCC(CC(=O)OC)C3=O)ccc(C(C)=O)c1O (configuration not stated),96 to 98 °C
23,COc1cc2c(Nc3ccc4cn[nH]c4c3)c(C#N)cnc2cc1OCCN1CCOCC1,133 to 135 °C
24,Clc1ccc2c(NCCCCCCCCCNc3ncnc4cc(Cl)ccc34)ncnc2c1,159 to 162 °C
25,Cc1ccc(S(=O)(=O)ON=C2CC(c3ccccc3)c3ccccc32)cc1 (configuration not stated),123 to 127 °C
26,COc1cn(-c2cccc(C(F)(F)F)c2)nc(C(C)=O)c1=O,155 to 156 °C

row,Compound,melting point
1,CC(O)=C(C#N)C(=O)Nc1ccc(S(C)(=O)=O)cc1,205 to 206 °C
2,Cc1cccc(C)c1C(=O)OCC(N)=O,106 to 108 °C
3,C=CC(c1cn(-c2ccccc2)nc1OCc1ccc(OCc2nc(-c3ccco3)oc2C)c(OC)c1)n1cncn1 (configuration not stated),115 to 116 °C
4,CCCCCCC(=N)NC(=O)Nc1ccc(Cl)cc1,168 to 169 °C
5,Cc1cc(OCc2sc(-c3ccc(C(F)(F)F)cc3)nc2C)ccc1OCC(=O)O,174 to 176 °C
6,C[C@@H](Cc1c2n(c3ccc(OC4CC4)cc13)CCC2)NC(=O)OC(C)(C)C,83 to 84 °C
7,CS(=O)(=O)c1ccc(-c2cc(CO[N+](=O)[O-])nn2C2CCCCCCC2)cc1,110 to 111 °C
8,CC(C)(C)NC(=O)Nc1ccc2oc3c(c2c1)CCCC3,310 to 312 °C
9,NC(=O)C1=C(NCc2ccccc2)CCCC1,73 to 74 °C
10,COc1cc(C(=O)OC2CC3C(=O)NC4(C(=O)NS(=O)(=O)C5CC5)CC4C=CCCCCCC(NC(=O)OC(C)(C)C)C(=O)N3C2)n(OC)n1 (configuration not stated),149 to 151 °C
11,CC(=O)C(=C1NCCCS1)[N+](=O)[O-],110 to 113 °C
12,CC(C)c1nc(N(C)S(C)(=O)=O)nc(-c2ccc(F)cc2)c1Br,122 to 125 °C
13,CC(=O)OCC1OC(n2cc(Cc3ccc(Br)cc3)c3c(C)cccc32)C(OC(C)=O)C(OC(C)=O)C1OC(C)=O (configuration not stated),190 to 192 °C
14,COC(=O)c1ccc(-c2nc(-c3ccc(C)cc3)cs2)cc1,185 to 187 °C
15,COc1c(C(C)(C)C)cc(C(=O)O)cc1C(C)(C)C,192 to 195 °C
16,COc1ccc(-c2nc3cc(Cl)c(Cl)cc3n2C(=O)OCc2ccccc2)cc1N,150 to 160 °C
17,CC(C)NCC(O)COc1ccc(CCOC2CCCC2)cc1 (configuration not stated),66 °C
18,CC1CC2C3CC(Cl)C4=CC(=O)C=CC4(C)C3C(O)CC2(C)C1C(=O)CO (configuration not stated),128 °C
19,CS(=O)(=O)c1ccc(-c2cnn(Cc3ccccc3)c(=O)c2-c2ccc(F)c(Cl)c2)cc1,134 to 136 °C
20,CCNC(=O)NNC(=O)c1ccc(Cl)cc1,237 to 239 °C
21,CCCN(C)C(C)CN1CCc2c(c(=O)oc3cc(OC)ccc23)C1 (configuration not stated),69 to 71 °C
22,COc1ccc2c(c1)OC(C)(C)C(NC(=O)c1cc(Cl)ccc1OC)C2=O (configuration not stated),174 °C
23,CCCN(C)C(=O)COC1c2ccccc2C(=O)N1c1ccc2ccc(OC)nc2n1 (configuration not stated),160 °C
24,O=C(NCCCn1cnc(-c2ccccc2)c1)c1ccco1,120 to 122 °C
25,O=C(O)CCCCCCCCc1ccco1,31 to 32 °C
26,C=C(F)CONC(=O)c1nc(-c2ccc(Cl)c(OC)c2F)cc(N)c1Cl,172 to 174 °C

row,Compound,melting point
1,COc1ccc(C(O)Cc2ccncc2)cc1OC1CCCC1 (configuration not stated),97 to 101 °C
2,O=C(CC1(c2cccc(C(F)(F)F)c2F)CC1)C(=O)Nc1ccc2c(c1)COC2=O,165 to 166 °C
3,O=C(Nc1nc2n(n1)Cc1ccccc1-2)c1ccccc1,220 to 221 °C
4,Cc1ccc(S(=O)(=O)NC(=O)NCCCCCCNC(=O)NS(=O)(=O)c2ccc(C)o2)o1,115 to 116 °C
5,CC(C)CNc1c([N+](=O)[O-])cnc2cccnc12,97 to 99 °C
6,FC(F)(F)C1(c2cc(Cl)cc(Cl)c2)CC(c2ccc(CBr)c(Cl)c2)=NO1 (configuration not stated),94 to 97 °C
7,CC(=O)Nc1ccc(OCCOc2ncc(Cl)cn2)cc1,160 °C
8,COc1cc2c(cc1O)CCN(CC(=O)c1ccc(OC)c(OC)c1)C2,149 to 150 °C
9,CCCCOC(=O)C(CCc1ccccc1)NC1CSC(c2ccsc2)CN(CC(=O)O)C1=O (configuration not stated),156 °C
10,CC(C)C[C@H](NC(=O)O[C@H]1CCOC1)C(=O)O,94.9 to 96 °C
11,O=C1OC(=Cc2ccccc2)c2ccc(-c3ccccc3)cc21,187 °C
12,C=C(C)c1ccc(C2C(C(=O)c3ccc(C(C)C)cc3)=C(O)C(=O)N2c2ccc(C)nn2)cc1 (configuration not stated),274 °C
13,OC(CCN1CC=C(c2ccc(Cl)cc2)CC1)c1ccc(Cl)cc1 (configuration not stated),154 to 155 °C
14,O=C1CC(CCO)c2ccccc2N1 (configuration not stated),119 to 120 °C
15,C=CCNc1nc(Cl)nc2c1ncn2CC=C,110 to 112 °C
16,CCOC(=O)C(CCc1ccccc1)=NO,84 to 85 °C
17,NC(=O)c1coc(-c2cccc(C3=Nc4ccc(-n5cccc5)cc4NC(=O)C3)c2)n1,232 to 234 °C
18,CCSc1ccc(CC(=O)NC(NC(Cc2ccccc2C)=NC#N)C(C)(C)C)cc1 (configuration not stated),196 to 198 °C
19,CCOC(=O)c1c(C)nn(C)c1S(N)(=O)=O,112 to 113 °C
20,CCCCCC(=O)Nc1ccn(C2OC(CO)C(O)C2O)c(=O)n1 (configuration not stated),131 to 136 °C
21,Cc1c(OCC(F)(F)F)ccnc1CSc1nc2ccccc2n1NCC(C)C,82 to 83 °C
22,Cc1[nH]cnc1CSCCNC1=C([N+](=O)[O-])CCCN1,206 °C
23,CC12CC(F)C3c4ccc(O)cc4CC(CCCCCBr)C3C1CCC2=O (configuration not stated),178 °C
24,CC(C)=CCN1CCc2c(sc(N)c2C(=O)c2ccccc2)C1,76 to 78 °C
25,CS(=O)c1ccccc1-c1nc2ncccc2o1 (configuration not stated),154 to 156 °C
26,NN=c1[nH]c2ccc(Br)cc2cc1[N+](=O)[O-],187 °C

row,Compound,melting point
1,Clc1ccc(-c2[nH]nc(N3CCN(C4CC4)CC3)c2-c2ccncc2)cc1,264 to 265 °C
2,c1cncc(C2CCCCC2)c1,78 to 80 °C
3,C=C(C)C(=O)OCc1c(Br)c(Br)c(Br)c(Br)c1COC(=O)C(=C)C,64 to 66 °C
4,Cc1cc(C)cc(C(OC(C)C(c2ccccc2)c2ccccc2)N(C)C(=O)c2ccccc2)c1 (configuration not stated),89 to 91 °C
5,CC1=C(C(=O)O)CCc2ccccc21,127 °C
6,CCOC(=O)C1CCc2c(c3ccccc3n2C(=O)c2ccccc2)C1 (configuration not stated),67 to 69 °C
7,O=C(NC(=O)c1c(F)cccc1F)Nc1ccc(C(F)(F)F)cn1,215 to 220 °C
8,Cc1nc2cc3c(cc2o1)C1(CO3)C(=O)N(CC2CCCO2)c2ccccc21 (configuration not stated),188 to 190 °C
9,Cc1ccccc1Oc1ccc2ccc(N)nc2n1,192 °C
10,CCCCCCCCCCCCCCOCc1ccc(C=C2C(=O)C3(C)CCC2C3(C)C)cc1 (configuration not stated),35 °C
11,O=S1(=O)N(CCCN2CCN(c3ccc(F)cc3)CC2)c2cccc3c2N1CCC3,98 °C
12,N#Cc1ccc2c(c1)CCC=C2n1ccnc1,152 to 153 °C
13,Cc1c(C(=O)Nc2ccc(N3CCN(C4CCOCC4)CC3)c(C#N)c2)cnn1-c1ccc(Cl)cc1,276 °C
14,Nc1nc2c3ccccc3ccn2n1,164 to 165 °C
15,CC1(C)CON(Cc2c(F)cccc2Cl)C1=O,49 to 51 °C
16,CCCCc1nc2c(N)nc(C)c(C)c2n1CC(C)(C)NC(=O)c1ccccc1,150 to 152 °C
17,COc1cc2c(cc1OC)CC(N(C)CCCN1CCc3cc(OC)c(OC)cc3C(O)C1=O)CC2 (configuration not stated),141 to 143 °C
18,C#CCOc1ccc(CCNC(=O)[C@@H](O)c2ccccc2)cc1OC,81 to 83 °C
19,COc1ccc2c(c1)CC(NC(C)=O)CC2 (configuration not stated),105 to 108 °C
20,C=CCN1CC(c2ccc(NC(=O)OCc3ccccc3)cc2F)CCS1(=O)=O (configuration not stated),138 to 140 °C
21,N#CC(C#N)=C1C(=O)Nc2ccc(S(=O)(=O)N3CCCC3COc3ccccc3)cc21 (configuration not stated),246 to 248 °C
22,CN(C)c1ccccc1SCC(N)=NO,133 °C
23,C[Si]1(C)CCCCCC[Si](C)(C)O[Si](C)(C)CCCCCC[Si](C)(C)O1,48 to 50 °C
24,CCCCCCCCCCOC(=O)Oc1ccc(-c2ccc(C#N)cc2)cc1,59.3 to 60 °C

# Source: a melting point compilation (Tetko et al.; mined from patent text by program, amines drawn as free bases though some values may be those of a salt)
